Molecular target: Human immunodeficiency virus type 1 integrase (Human immunodeficiency virus 1, UniProt Q7ZJM1)
Test: Inhibition of HIV1 integrase

Chain of Human immunodeficiency virus type 1 integrase (Q7ZJM1 whole entry): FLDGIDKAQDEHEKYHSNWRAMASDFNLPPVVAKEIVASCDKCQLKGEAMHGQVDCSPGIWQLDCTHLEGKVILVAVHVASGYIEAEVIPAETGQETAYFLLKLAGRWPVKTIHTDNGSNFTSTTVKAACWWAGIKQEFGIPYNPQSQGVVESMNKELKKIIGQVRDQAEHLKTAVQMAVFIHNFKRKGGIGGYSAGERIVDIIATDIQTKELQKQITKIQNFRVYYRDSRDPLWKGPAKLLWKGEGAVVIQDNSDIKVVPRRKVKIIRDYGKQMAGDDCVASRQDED

IC50 [nM] | SMILES
< 1000 | O=C(/C=C(\O)c1nc[nH]n1)c1ccc(Cc2ccc(F)cc2)[nH]1
< 1000 | O=C(/C=C(\O)c1cc[nH]c1)c1ccc(Cc2ccc(F)cc2)o1

Reference: ChEMBL document CHEMBL1140625 (Bioorg Med Chem, 2007)
